Key:
[1] = 101.33 kPa, Liquid; for viscosity: Falling or rolling sphere viscometry; for mass density: Vibrating tube method
[2] = wn = mass fraction of the nth substance listed; details: 101.3 kPa, Liquid, Vibrating tube method

OCCO [1,2-ethanediol]
[1]
Details | mass density [kg/m3] | viscosity [mPa·s]
303.15 K | 1106.3 | 13.66
308.15 K | – | 11.32
313.15 K | 1099.2 | 9.474
318.15 K | – | 8.016
323.15 K | 1092.1 | 6.849
328.15 K | 1088.4 | 5.903
333.15 K | 1084.8 | 5.124
338.15 K | 1081.2 | 4.482
343.15 K | 1077.5 | 3.946
348.15 K | 1073.7 | 3.496
353.15 K | 1070 | 3.112

OCCO [1,2-ethanediol] + O
mass density [kg/m3], [2]
Details | 293.25 K | 293.45 K | 303.15 K | 303.45 K | 313.15 K | 323.25 K | 333.25 K | 333.35 K
w1 = 0.95 | – | 1109.3 | – | 1102.4 | – | 1088.3 | – | 1081
w1 = 1 | 1113.6 | – | 1106.5 | – | 1099.2 | 1091.9 | 1084.6 | –

O [water] + OCCO
[2], w2 = 0
Details | mass density [kg/m3]
323.25 K | 988
333.35 K | 983.1
